# In patent US20230242496A1, “SOX11 INHIBITORS FOR TREATING MANTLE CELL LYMPHOMA” (Icahn School of Medicine At Mount Sinai, priority 2020, published 2023):
# Tested on: Jeko-1 (SOX11+)
# Test: Cell viability assay (CellTiter-Blue resazurin reduction)
# Type: cell-based
# Details: Homo sapiens, JeKo-1, 72 h, JeKo-1 cells, 0-40 μM
# Protocol: Cell viability was determined by a fluorometric resazurin reduction method (CellTiter-Blue; Promega, Madison, Wis.) following the manufacturer's instructions. […] Cells were incubated for 72 hours. After incubation, 20 μl CellTiter-Blue Cell was added to each well and incubated for another 2 hours. […] The number of viable cells in each treated well was calculated, based on the linear least squares regression of the standard curve (OD vs. cell concentration). The viability of cells treated with compounds was normalized to the viability of cells treated with 0.2% Dimethyl sulfoxide (DMSO). Cell counts were confirmed with Trypan Blue Exclusion Assay on the Countess automated cell counter (Invitrogen) according to the manufacturer's specifications. The average and mean standard deviation were calculated from three separate experiments. IC50 values were calculated using the GraphPad Prism (version 4.00) based on a sigmoidal dose-response equation.
row,Structure (SMILES),IC50 [µM]
1,O=C(Nc1ccc(S(=O)(=O)Nc2ccccc2)cc1)c1ccc2nn[nH]c2c1,12
2,CC1Sc2ccc(C(=O)Nc3ccc(S(=O)(=O)Nc4ccccc4F)cc3)cc2NC1=O (stereo not shown),15
3,CC1Sc2ccc(C(=O)Nc3ccc(S(=O)(=O)Nc4ccccc4)cc3C(F)(F)F)cc2NC1=O (stereo not shown),5
4,Cc1cc(S(=O)(=O)Nc2ccccc2)ccc1NC(=O)c1ccc2c(c1)NC(=O)C(C)S2 (stereo not shown),20
5,CC1Sc2ccc(C(=O)Nc3cccc(S(=O)(=O)Nc4cccc(C(F)(F)F)c4)c3)cc2NC1=O (stereo not shown),10
6,C[C@H]1Sc2ccc(C(=O)Nc3ccc(S(=O)(=O)Nc4ccccc4)cc3)cc2NC1=O,12.5
7,CC1Sc2ccc(C(=O)Nc3ccc(S(=O)(=O)Nc4ccccc4)cc3)cc2NC1=O (stereo not shown) [drawing 599],12.5

# Same assay, conditions: Homo sapiens, JeKo-1, 72 h, JeKo-1 cells, 20 μM compound, normalized to 0.2% DMSO
row,Structure (SMILES),viability at 20 µM [%]
1,O=C(Nc1ccc(S(=O)(=O)Nc2ccccc2)cc1)c1ccc2nn[nH]c2c1,5.75
2,CC1Sc2ccc(C(=O)Nc3ccc(S(=O)(=O)Nc4ccccc4F)cc3)cc2NC1=O (stereo not shown),21.2
3,CC1Sc2ccc(C(=O)Nc3ccc(S(=O)(=O)Nc4ccccc4)cc3C(F)(F)F)cc2NC1=O (stereo not shown),1.38
4,Cc1cc(S(=O)(=O)Nc2ccccc2)ccc1NC(=O)c1ccc2c(c1)NC(=O)C(C)S2 (stereo not shown),51.1
5,CC1Sc2ccc(C(=O)Nc3cccc(S(=O)(=O)Nc4cccc(C(F)(F)F)c4)c3)cc2NC1=O (stereo not shown),16.8
6,CC1Sc2ccc(C(=O)Nc3ccc(OCc4ccccc4C(F)(F)F)cc3)cc2NC1=O (stereo not shown),106
7,CC1Sc2ccc(C(=O)Nc3ccc(OCc4ccccc4)cc3)cc2NC1=O (stereo not shown),104
8,CC1Sc2ccc(C(=O)Nc3cccc(OCc4ccccc4C(F)(F)F)c3)cc2NC1=O (stereo not shown),87.1

# Same assay, conditions: JeKo-1 cells, 20 μM compound, 72 hours, normalized to 0.2% DMSO; 20 µM
row,Structure (SMILES),Jeko-1 Viability at 20 μM (%)
1,O=C1CSc2ccc(C(=O)Nc3ccc(S(=O)(=O)Nc4ccccc4)cc3)cc2N1 [drawing 503],2.73
2,O=C1CSc2ccc(C(=O)Nc3ccc(S(=O)(=O)Nc4ccccc4)cc3)cc2N1 [drawing 513],79.21
3,CC1Sc2ccc(C(=O)Nc3ccc(S(=O)(=O)Nc4ccccc4)cc3)cc2NC1=O (stereo not shown) [drawing 599],6.36

# Same assay, conditions: JeKo-1 cells, 72 hours, 0-40 μM
row,Structure (SMILES),IC50 [µM]
1,O=C1CSc2ccc(C(=O)Nc3ccc(S(=O)(=O)Nc4ccccc4)cc3)cc2N1 [drawing 503],7.5
2,O=C1CSc2ccc(C(=O)Nc3ccc(S(=O)(=O)Nc4ccccc4)cc3)cc2N1 [drawing 513],> 20

# Target: T1, (His)6-SOX11-DBD protein (Homo sapiens, UniProt P35716)
# T1 construct: Recombinant (His)6-SOX11-DBD protein was immobilized
# T1 sequence (P35716 49-117 limits assumed): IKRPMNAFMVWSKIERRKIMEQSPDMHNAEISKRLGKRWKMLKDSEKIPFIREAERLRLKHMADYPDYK
# Test: Surface Plasmon Resonance (SPR) assay
# Type: binding
# Details: immobilized recombinant (His)6-SOX11-DBD, 25° C., compounds 5-40 μM, mean of three experiments
# Protocol: Surface Plasmon Resonance (SPR) Assay
# Recombinant (His)6-SOX11-DBD protein was immobilized at a flow rate of 10 μl/min for 180 seconds to the right channel of a gold-coated SCR NiHC200M sensor chip (XanTec bioanalytics) placed in a Reichert 2SPR instrument (Reichert Technologies). The left channel, without immobilized protein, was used as a reference. […] Compounds flowed sequentially from the left to the right channel over the prepared sensor chip surface. 120 seconds association phase with each compound concentration was followed by 300 seconds dissociation phase with the assay buffer alone. The ka, kd, and KD values were determined from the sensograms for at least 3 concentrations of each compound by curve fitting the data using Reichert's TraceDrawer software. The mean KD value for each compound was calculated from three separate experiments.
row,Structure (SMILES),Kd [µM]
1,CC1Sc2ccc(C(=O)Nc3cccc(CNc4cccc(OS(=O)(=O)F)c4)c3)cc2NC1=O (stereo not shown),11.2
2,CC1Sc2ccc(C(=O)Nc3cccc(OCc4ccc(OS(=O)(=O)F)cc4)c3)cc2NC1=O (stereo not shown),19.1
3,CC1Sc2ccc(C(=O)Nc3cccc(OCc4cccc(OS(=O)(=O)F)c4)c3)cc2NC1=O (stereo not shown),16.9
4,CC1Sc2ccc(C(=O)Nc3cccc(S(=O)(=O)F)c3)cc2NC1=O (stereo not shown),35.5
5,CC1Sc2ccc(C(=O)Nc3ccc(OCc4cccc(S(=O)(=O)F)c4)cc3)cc2NC1=O (stereo not shown),7.17
6,CC(=O)N1CCN(S(=O)(=O)c2cccc(NC(=O)c3ccc4c(c3)CCCS4)c2)CC1,15.4
7,O=C(Nc1cccc(CN2CCCCC2)c1)c1ccc2c(c1)CCCS2,24
8,CC(=O)N1CCN(S(=O)(=O)c2ccc(NC(=O)c3ccc4c(c3)CCCS4)cc2)CC1,24.1
9,CCCCN1C(=O)CSc2ccc(C(=O)Nc3ccc(S(=O)(=O)N4CCCCC4)cc3)cc21,25.2
10,c1ccc(OCc2ccc(CNc3ccc4cncnc4c3)cc2)cc1,12
11,CN1C(=O)COc2ccc(C(=O)Nc3ccc(S(=O)(=O)N4CCCCCC4)cc3)cc21,4.94
12,CN1C(=O)CSc2ccc(C(=O)Nc3ccc(CN4CCCCC4)cc3)cc21,129
13,CC(C)N1C(=O)CSc2ccc(C(=O)Nc3ccc(S(=O)(=O)N4CCCCC4)cc3)cc21,6.37
14,CN(Cc1ccccc1)c1ccc(CNc2ccc3cccnc3c2)cc1,9.27
15,CN(Cc1ccccc1)c1ccc(CNc2ccc3cncnc3c2)cc1,20.7
16,c1ncc2ccc(NCc3ccc(OCC4CCOCC4)cc3)cc2n1,24.4
17,c1ncc2ccc(NCc3ccc(OCC4CCCCC4)cc3)cc2n1,8.28
18,Cc1ccccc1COc1ccc(CNc2ccc3cncnc3c2)cc1,11.1
19,Cc1cccc(COc2ccc(CNc3ccc4cncnc4c3)cc2)c1,7.63
20,Clc1cccc(COc2ccc(CNc3ccc4cncnc4c3)cc2)c1,3.28
21,Clc1ccccc1COc1ccc(CNc2ccc3cncnc3c2)cc1,7.88
22,Clc1cc(CNc2ccc3cncnc3c2)ccc1OCc1ccccc1,4.01
23,FC(F)(F)c1cc(CNc2ccc3cncnc3c2)ccc1OCc1ccccc1,4.89
24,CC(=O)N1CCN(S(=O)(=O)c2ccc(NC(=O)c3ccc4snnc4c3)cc2)CC1,16.9
25,CN1C(=O)CSc2ccc(C(=O)Nc3ccc(S(C)(=O)=O)c(Cl)c3)cc21,141

# Results, then the compound that gave them:
row,Kd [µM],Structure (SMILES)
1,94.6,Cc1cc(C(=O)Nc2ccc(S(=O)(=O)Nc3ccccc3)cc2)nc(NC2CCC(N)CC2)n1 (stereo not shown)
2,89.6,CC(=O)NCCNc1nc(C)cc(C(=O)Nc2ccc(S(=O)(=O)Nc3ccccc3)cc2)n1
3,80.7,Cc1cc(Nc2cc(C(=O)Nc3ccc(S(=O)(=O)Nc4ccccc4)cc3)ccc2C)nc(N)n1
4,72.1,Cc1ccc(C(=O)Nc2ccc(S(=O)(=O)Nc3ccccc3)cc2)cc1NC(=O)CCc1c[nH]cn1
5,16.5,COc1cccc(NC(=O)Nc2cc(Nc3cccc(S(=O)(=O)N4CCCC4)c3)ncn2)c1
6,79.3,NCCc1nc2ccc(C(=O)Nc3ccc(S(=O)(=O)Nc4ccccc4)cc3)cc2[nH]1
7,118,Nc1cccc(Nc2ccnc(Nc3cccc(S(=O)(=O)N4CCCC4)c3)n2)c1
8,61.9,Cc1ccc(C(=O)Nc2ccc(S(=O)(=O)Nc3ccccc3)cc2)cc1NC(=O)Cc1cc(=O)[nH]c(=O)[nH]1
9,22.1,Cc1cc(C(=O)Nc2ccc(S(=O)(=O)Nc3ccccc3)cc2)nc(NCCN)n1
10,38,CC(=O)NCc1cccc(Nc2ccnc(Nc3cccc(S(=O)(=O)N4CCCC4)c3)n2)c1
11,163,CC(=O)NCc1cccc(Nc2nc(Nc3cccc(S(=O)(=O)N4CCCC4)c3)ncc2C)c1
12,122,Cc1cc(C(=O)Nc2ccc(OCc3ccccc3)cc2)nc(NCCN)n1
13,247,O=C(Cc1ccccc1[N+](=O)[O-])Nc1cccc(C(=O)Nc2ccc(CN3CCCC3)cc2)c1
14,15.4,Nc1ccccc1CC(=O)Nc1cccc(C(=O)Nc2ccc(CN3CCCC3)cc2)c1
15,105,Cc1cnc(Nc2cccc(S(=O)(=O)N3CCCC3)c2)nc1Nc1cccc(N)c1
16,21.7,CN(c1ccccc1)S(=O)(=O)c1ccc(NC(=O)c2ccc3c(c2)CCCS3)cc1
17,37.5,CN(Cc1cccc(NC(=O)c2ccc3c(c2)CCCS3)c1)c1ccccc1
18,15.7,O=C(Nc1ccc(S(=O)(=O)N2CCCCC2)cc1)c1ccc2c(c1)N(Cc1ccccc1)C(=O)CS2
19,12.4,O=C(Nc1cccc(OCc2ccccc2)c1)c1ccc2oc(=O)[nH]c2c1
20,367,O=C(Nc1ccc(S(=O)(=O)Nc2ccccc2)cc1)c1ccc2nncn2c1
21,38.8,CN(Cc1cccc(NC(=O)c2ccc3snnc3c2)c1)c1ccccc1
22,82.1,CN1C(=O)CSc2ccc(C(=O)Nc3ccc(S(C)(=O)=O)cc3)cc21
23,14.2,CN(c1cccc(Cl)c1)S(=O)(=O)c1ccc(NC(=O)c2ccc3c(c2)CCCS3)cc1

row,Kd [µM],Structure (SMILES)
1,106,CN(c1ccccc1)S(=O)(=O)c1ccc(NC(=O)c2ccc(/C=C/C(=O)O)cc2)cc1
2,11,CN(c1ccccc1)S(=O)(=O)c1ccc(NC(=O)c2ccc(SCC(=O)O)cc2)cc1
3,18.2,O=C(Nc1cccc(CNc2ccccc2)c1)c1ccc2oc(=O)[nH]c2c1
4,13.6,CN(Cc1cccc(NC(=O)c2ccc3oc(=O)[nH]c3c2)c1)c1ccccc1
5,7.52,CCN1C(=O)CSc2ccc(C(=O)Nc3ccc(S(=O)(=O)N4CCCCC4)cc3)cc21
6,130,CCN(c1ccccc1)S(=O)(=O)c1ccc(NC(=O)c2ccc3c(c2)CCCS3)cc1
7,10.2,CN(c1ccccc1)S(=O)(=O)c1ccc(NC(=O)c2ccc3c(c2)CCCS3)cc1Cl
8,5.62,CN(c1ccccc1)S(=O)(=O)c1ccc(NC(=O)c2ccc3c(c2)CCCS3)cc1C(F)(F)F
9,5.28,O=C1COc2ccc(C(=O)Nc3ccc(CNc4ccccc4)cc3)cc2N1
10,46.1,O=C(Nc1ccc(CNc2ccccc2)cc1)c1ccc2nncn2c1
11,30.6,c1ccc(CNc2ccc(CNc3ccc4cncnc4c3)cc2)cc1
12,9.24,Cc1cc(OCc2ccccc2)ccc1CNc1ccc2cncnc2c1
13,1.74,O=C1CSc2ccc(C(=O)Nc3ccc(CNc4ccccc4)cc3)cc2N1
14,10.3,Cc1ccccc1N(C)S(=O)(=O)c1ccc(NC(=O)c2ccc3c(c2)CCCS3)cc1
15,2.73,Cc1ccc(N(C)S(=O)(=O)c2ccc(NC(=O)c3ccc4c(c3)CCCS4)cc2)cc1
16,4.55,Cc1cccc(N(C)S(=O)(=O)c2ccc(NC(=O)c3ccc4c(c3)CCCS4)cc2)c1
17,10.8,CN(c1ccc(Cl)cc1)S(=O)(=O)c1ccc(NC(=O)c2ccc3c(c2)CCCS3)cc1
18,2.39,CN(c1ccccc1Cl)S(=O)(=O)c1ccc(NC(=O)c2ccc3c(c2)CCCS3)cc1
19,2.9,CN(Cc1ccc(NC(=O)c2ccc3nn[nH]c3c2)cc1)c1ccccc1
20,11.5,CN(Cc1ccc(NC(=O)c2ccc3c(c2)CCCS3)cc1)c1ccccc1
21,8.1,CN(Cc1ccc(NC(=O)c2ccc3c(c2)N(C)C(=O)CS3)cc1)c1ccccc1
22,24.8,CN(Cc1ccc(NC(=O)c2ccc3c(c2)NC(=O)CS3)cc1)c1ccccc1
23,7.91,O=C(Nc1ccc(CNc2ccccc2)cc1)c1ccc2oc(=O)[nH]c2c1
